Key:
Assay in all cases: Tyrosine kinase inhibition assay
Format in all cases: biochemical
Conditions in all cases: single concentration 1.0 μM, read-out: percent inhibition
JAK3 = target: T1, JAK3 (Homo sapiens, UniProt P52333)
T1 sequence (P52333 1-1124): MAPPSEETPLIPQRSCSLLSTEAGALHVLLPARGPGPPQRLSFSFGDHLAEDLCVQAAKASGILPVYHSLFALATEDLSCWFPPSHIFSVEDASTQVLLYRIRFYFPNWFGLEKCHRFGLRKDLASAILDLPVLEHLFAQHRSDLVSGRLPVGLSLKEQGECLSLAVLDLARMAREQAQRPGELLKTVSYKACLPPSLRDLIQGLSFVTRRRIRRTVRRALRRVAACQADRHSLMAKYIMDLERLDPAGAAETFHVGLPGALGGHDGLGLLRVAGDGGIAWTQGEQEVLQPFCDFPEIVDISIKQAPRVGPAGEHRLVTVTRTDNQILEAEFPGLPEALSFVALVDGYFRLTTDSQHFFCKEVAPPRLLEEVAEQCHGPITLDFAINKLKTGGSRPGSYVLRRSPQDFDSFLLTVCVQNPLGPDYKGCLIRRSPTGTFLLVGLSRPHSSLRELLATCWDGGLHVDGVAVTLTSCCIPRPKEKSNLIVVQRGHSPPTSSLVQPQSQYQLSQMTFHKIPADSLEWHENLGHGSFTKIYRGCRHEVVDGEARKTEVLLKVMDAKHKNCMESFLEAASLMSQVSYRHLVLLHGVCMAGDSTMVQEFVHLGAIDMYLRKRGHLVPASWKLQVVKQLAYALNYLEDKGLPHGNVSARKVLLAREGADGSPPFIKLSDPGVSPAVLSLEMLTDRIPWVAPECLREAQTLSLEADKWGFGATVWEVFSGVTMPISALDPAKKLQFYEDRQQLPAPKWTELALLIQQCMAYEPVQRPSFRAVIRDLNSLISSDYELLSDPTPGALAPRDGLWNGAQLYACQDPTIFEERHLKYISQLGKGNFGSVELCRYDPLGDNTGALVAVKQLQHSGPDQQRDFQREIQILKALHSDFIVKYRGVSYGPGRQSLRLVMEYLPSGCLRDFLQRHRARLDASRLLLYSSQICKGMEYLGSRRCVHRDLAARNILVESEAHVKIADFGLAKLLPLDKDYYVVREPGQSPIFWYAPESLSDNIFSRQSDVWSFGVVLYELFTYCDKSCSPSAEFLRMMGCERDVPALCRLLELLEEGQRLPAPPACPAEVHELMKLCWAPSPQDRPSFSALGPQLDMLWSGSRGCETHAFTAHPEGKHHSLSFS
Method in brief: (§1)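 Single-point screen, 1.0 μM compound, 1% DMSO final; ATP at apparent Km. Buffer: 50 mM HEPES pH 7.5, 0.01% BRIJ-35, 10 mM MgCl2, 1 mM EGTA. Z′-LYTE readout, % inhibition; hit = >80%.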

EPHB4 = target: T2, EPHB4 (Homo sapiens, UniProt P54760)
T2 sequence (P54760 16-987): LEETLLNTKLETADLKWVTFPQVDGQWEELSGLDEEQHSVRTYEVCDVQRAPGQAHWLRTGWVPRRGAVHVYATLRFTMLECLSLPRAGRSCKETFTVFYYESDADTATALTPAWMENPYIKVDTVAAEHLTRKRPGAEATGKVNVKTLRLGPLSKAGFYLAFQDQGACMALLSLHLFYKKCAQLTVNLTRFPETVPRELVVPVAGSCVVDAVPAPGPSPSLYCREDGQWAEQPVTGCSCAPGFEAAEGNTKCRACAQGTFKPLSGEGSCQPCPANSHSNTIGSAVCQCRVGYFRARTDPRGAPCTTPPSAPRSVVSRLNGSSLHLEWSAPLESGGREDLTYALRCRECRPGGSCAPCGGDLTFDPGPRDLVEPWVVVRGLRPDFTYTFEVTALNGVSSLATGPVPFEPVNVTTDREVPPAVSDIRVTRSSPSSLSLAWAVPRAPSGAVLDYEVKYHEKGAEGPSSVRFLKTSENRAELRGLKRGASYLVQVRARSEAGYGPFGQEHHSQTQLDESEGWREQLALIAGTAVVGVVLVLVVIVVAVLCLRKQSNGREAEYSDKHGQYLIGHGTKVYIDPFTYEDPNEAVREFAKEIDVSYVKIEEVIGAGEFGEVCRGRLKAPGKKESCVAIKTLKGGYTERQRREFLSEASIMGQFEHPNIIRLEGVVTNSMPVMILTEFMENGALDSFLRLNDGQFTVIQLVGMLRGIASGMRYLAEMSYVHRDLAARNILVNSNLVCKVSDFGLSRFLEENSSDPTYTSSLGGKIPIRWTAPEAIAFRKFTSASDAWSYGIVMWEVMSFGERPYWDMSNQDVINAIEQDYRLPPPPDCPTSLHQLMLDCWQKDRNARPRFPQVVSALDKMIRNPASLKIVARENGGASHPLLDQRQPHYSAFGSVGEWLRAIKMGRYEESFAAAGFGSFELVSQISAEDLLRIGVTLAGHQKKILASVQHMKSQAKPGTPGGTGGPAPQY
Method in brief: as §1

ALK = ALK (Homo sapiens, UniProt Q9UM73)
Sequence of ALK (Q9UM73 19-1620): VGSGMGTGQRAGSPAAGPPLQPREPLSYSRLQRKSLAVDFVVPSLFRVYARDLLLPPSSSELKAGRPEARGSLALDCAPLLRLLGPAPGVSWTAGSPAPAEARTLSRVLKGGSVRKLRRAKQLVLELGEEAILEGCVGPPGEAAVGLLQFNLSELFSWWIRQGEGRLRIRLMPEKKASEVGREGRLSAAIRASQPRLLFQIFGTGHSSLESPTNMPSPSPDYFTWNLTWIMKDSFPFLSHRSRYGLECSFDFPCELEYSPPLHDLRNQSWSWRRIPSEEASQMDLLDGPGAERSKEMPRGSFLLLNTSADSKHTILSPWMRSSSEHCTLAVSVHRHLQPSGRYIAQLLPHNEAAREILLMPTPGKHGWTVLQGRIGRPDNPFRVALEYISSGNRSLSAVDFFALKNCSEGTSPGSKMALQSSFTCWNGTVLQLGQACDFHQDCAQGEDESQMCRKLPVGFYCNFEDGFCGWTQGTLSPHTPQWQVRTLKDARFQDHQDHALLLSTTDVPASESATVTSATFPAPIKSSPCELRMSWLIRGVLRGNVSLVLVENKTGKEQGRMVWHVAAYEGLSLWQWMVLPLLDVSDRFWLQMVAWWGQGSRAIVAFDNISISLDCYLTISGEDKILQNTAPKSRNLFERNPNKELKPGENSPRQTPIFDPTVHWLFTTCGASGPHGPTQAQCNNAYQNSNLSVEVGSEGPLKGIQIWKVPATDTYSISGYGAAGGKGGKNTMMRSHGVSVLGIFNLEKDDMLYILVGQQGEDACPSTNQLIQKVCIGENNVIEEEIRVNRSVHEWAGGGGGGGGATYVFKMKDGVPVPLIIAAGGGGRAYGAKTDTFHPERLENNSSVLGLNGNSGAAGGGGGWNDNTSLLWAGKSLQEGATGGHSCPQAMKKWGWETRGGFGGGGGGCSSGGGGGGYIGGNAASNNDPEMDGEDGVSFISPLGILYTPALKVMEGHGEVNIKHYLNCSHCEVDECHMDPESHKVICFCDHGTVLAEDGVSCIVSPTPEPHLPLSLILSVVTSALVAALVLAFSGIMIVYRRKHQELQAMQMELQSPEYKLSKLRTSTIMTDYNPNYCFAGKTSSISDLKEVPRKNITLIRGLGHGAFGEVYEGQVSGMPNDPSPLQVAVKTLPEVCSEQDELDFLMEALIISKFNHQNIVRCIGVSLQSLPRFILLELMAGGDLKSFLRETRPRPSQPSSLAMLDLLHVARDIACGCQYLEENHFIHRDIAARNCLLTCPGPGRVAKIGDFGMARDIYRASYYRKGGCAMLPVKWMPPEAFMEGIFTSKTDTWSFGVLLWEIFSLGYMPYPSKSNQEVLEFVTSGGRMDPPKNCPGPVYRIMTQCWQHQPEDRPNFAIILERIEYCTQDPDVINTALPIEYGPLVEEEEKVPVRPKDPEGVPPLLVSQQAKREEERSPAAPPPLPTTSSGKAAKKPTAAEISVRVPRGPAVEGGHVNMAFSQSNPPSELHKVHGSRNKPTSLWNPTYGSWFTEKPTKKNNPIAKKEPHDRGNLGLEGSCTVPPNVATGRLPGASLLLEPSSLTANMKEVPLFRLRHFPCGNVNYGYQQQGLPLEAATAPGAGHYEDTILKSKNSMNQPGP
Method in brief: as §1

PTK2B (FAK2) = PTK2B (FAK2) (Homo sapiens, UniProt Q14289)
Sequence of PTK2B (FAK2) (Q14289 whole entry): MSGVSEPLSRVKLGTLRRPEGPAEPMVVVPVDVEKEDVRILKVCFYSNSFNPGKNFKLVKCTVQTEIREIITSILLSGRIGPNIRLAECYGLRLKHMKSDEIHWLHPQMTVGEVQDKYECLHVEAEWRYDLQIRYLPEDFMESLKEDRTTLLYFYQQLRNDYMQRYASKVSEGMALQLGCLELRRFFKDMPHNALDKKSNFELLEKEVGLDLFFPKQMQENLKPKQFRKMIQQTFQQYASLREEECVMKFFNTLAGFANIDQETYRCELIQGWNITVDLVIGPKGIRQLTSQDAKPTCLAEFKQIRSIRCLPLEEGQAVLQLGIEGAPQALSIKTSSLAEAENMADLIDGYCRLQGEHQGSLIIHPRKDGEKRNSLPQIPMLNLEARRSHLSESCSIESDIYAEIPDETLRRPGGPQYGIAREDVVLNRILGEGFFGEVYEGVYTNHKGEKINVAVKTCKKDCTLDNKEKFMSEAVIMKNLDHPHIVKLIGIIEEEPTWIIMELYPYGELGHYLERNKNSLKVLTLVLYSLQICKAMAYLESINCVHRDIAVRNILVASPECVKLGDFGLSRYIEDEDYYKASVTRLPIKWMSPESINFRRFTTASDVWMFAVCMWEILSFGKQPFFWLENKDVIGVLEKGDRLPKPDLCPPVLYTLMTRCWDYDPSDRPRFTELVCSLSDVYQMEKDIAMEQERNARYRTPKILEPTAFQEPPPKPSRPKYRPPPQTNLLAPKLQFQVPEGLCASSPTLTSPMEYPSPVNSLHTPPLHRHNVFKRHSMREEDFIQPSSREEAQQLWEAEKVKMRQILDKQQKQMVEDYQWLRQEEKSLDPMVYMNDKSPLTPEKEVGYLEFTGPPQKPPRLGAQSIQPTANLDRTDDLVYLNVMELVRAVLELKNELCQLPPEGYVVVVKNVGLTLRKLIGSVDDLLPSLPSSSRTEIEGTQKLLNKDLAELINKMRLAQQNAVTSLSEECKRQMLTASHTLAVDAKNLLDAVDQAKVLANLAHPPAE
Method in brief: as §1

SRMS (Srm) = SRMS (Srm) (Homo sapiens, UniProt Q9H3Y6)
Sequence of SRMS (Srm) (Q9H3Y6 whole entry): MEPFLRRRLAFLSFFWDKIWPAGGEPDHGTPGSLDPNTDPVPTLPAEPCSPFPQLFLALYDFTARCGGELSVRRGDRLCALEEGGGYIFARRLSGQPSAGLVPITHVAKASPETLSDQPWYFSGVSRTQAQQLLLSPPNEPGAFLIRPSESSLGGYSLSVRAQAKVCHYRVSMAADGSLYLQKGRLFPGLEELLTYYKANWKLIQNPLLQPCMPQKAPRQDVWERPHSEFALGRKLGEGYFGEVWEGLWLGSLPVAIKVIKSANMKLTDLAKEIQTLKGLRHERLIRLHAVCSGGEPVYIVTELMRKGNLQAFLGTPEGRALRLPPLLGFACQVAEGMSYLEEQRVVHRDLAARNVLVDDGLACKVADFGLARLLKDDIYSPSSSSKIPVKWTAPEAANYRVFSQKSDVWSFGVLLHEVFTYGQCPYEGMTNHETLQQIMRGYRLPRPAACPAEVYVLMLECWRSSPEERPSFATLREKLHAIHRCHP
Method in brief: as §1

SMILES | inhibition at 1 µM (JAK3) [%] | inhibition at 1 µM (EPHB4) [%] | inhibition at 1 µM (ALK) [%] | inhibition at 1 µM (PTK2B (FAK2)) [%] | inhibition at 1 µM (SRMS (Srm)) [%]
COc1cc2nccc(Oc3ccc(NC(=O)C4(C(=O)Nc5ccc(F)cc5)CC4)cc3)c2cc1OC [Cabozantinib, reference compound] | 9 | 93 | 28 | 71 | 96
COc1cc2nccc(Oc3ccc(NC(=O)C4(NC(=O)c5ccc(F)cc5)CC4)cc3F)c2cc1OC [Cbo-02, N-(1-((4-((6,7-diMethoxyquinolin-4-yl)oxy)-3-fluorophenyl)carbamoyl)cyclopropyl)-4-fluorobenzamide] | 11 | 27 | 20 | 9 | 12
COc1cc2nccc(Oc3ccc(NC(=O)C4(NC(=O)c5ccc(F)cc5)CC4)cc3F)c2cc1Oc1ccc(N)cc1F [Cbo-10] | 9 | 50 | 36 | 56 | 74
COc1cc2nccc(Oc3ccc(NC(=O)C4(NC(=O)c5ccc(F)cc5)CC4)cc3F)c2cc1Oc1c(F)cc(N)cc1F [Cbo-14] | 21 | 76 | 32 | 54 | 84
COc1cc2nccc(Oc3ccc(NC(=O)C4(C(=O)Nc5ccc(F)cc5)CC4)cc3F)c2cc1Oc1ccc(N)cc1F [Cbo-23] | 17 | 103 | 78 | 100 | 99

Reference: US20250120967A1, “TYROSINE KINASES INHIBITORS AND USES THEREOF” (GREAT NOVEL THERAPEUTICS BIOTECH & MEDICALS CORPORATION, priority 2023, published 2025)
